# Experimental data published in US20060069157A1, “Method of ameliorating or abrogating the effects of a neurodegenerative disorder, such as Huntington's disease, by sodium butyrate chemotherapy” (U.S. DEPARTMENT OF VETERANS AFFAIRS, priority 2004, published 2006).
# Test system: acetylated histone H3 and acetylated histone H4
# Test: Histone acetylation assay (Western blot, whole brain)
# Format: in vivo, mouse
# Experimental: Histone Acetylation Assay: At 42 days, groups of 10 R6/2 mice and littermate wild-type control mice were treated with daily with the most optimal dose of sodium butyrate (1.2 g/kg), as determined by survival studies, or PBS via intraperitoneal injections for two weeks. The mice were euthanized at 56 days of age and the brains rapidly frozen and stored at −80 βC. Histone acetylation was determined, using a previously reported Western analysis method (Warrel et al., 1998). Histones were isolated from sodium butyrate treated and untreated whole brains. Western blot analysis for histone acetylation was performed using acetylated histone H3 and acetylated histone H4 antibodies (Upstate Biotechnology, Lake Placid, N.Y.). Protein levels were determined via Coomassie Protein Assay (Pierce, Rockford, Ill.). Each of the sample measurements was carried out twice, with the investigator performing the assays (JKK) blind to genotype and treatment group.
structure (smiles),measurement,setting,value
CCCC(=O)[O-].[Na+] [sodium butyrate],difference in increased acetylation of H3 and H4 between doses,600 mg/kg/d vs 1.2 g/kg/d,did not observe any difference
same,H3 and H4 acetylation (Western blot),"1.2 g/kg/d i.p. for two weeks from 42 days, R6/2 brain at 56 days",marked increase
